# Results from patent publication US6511673B1, “Microbicidal composition” (Rohm and Haas Company, priority 2000, dated 2003).
# Where two headings read alike, the source gives them in different places.
# Experiments:
# Assay type in all cases: cell-based
# [1] = system: Candida albicans; experiment: High resolution MIC synergy assay in TSB, Test Medium Condition 2 (ten-fold serial dilution)
# Experimental: (§1) Synergism was determined by an industrially accepted method described by Kull, F. C.; Eisman, P. C.; Sylwestrowicz, H. D. and Mayer, R. L., in Applied Microbiology 9:538-541 (1961), using the ratio determined by the formula:
# (§2) Qa/QA+Qb/QB=Synergy Index (“SI”)
# (§3) When the sum of Qa/QA and Qb/QB is greater than one, antagonism is indicated. […] The lower the SI, the greater the synergy shown by that particular mixture. The minimum inhibitory concentration (MIC) of a microbicide is the lowest concentration tested under a specific set of conditions that prevents the growth of added microorganisms.
# (§4) Synergism of combinations of microbicides was determined using standard MIC assays in trypticase soy broth medium (“TSB” medium). In this method, a range of concentrations was tested by preparing two-fold serial dilutions of the compound tested in 96-well microtiter plates. All liquid media transfers were performed with calibrated single or multichannel digital pipettors. Stock solutions of the microbicides were prepared in appropriate solvents and added to the TSB medium. All subsequent dilutions in plates were made using an automated liquid handling system. Final concentrations of microbicides were obtained by making two-fold serial dilutions in two directions in the microtiter plate. […] A cell suspension of either Aspergillus niger (A. niger, ATCC #16404) or Candida albicans (C. albicans, ATCC #10231), adjusted to provide 1×10^5 cells per mL in each well, was added to the microtiter plates.
# (§5) In a manner similar to that described above for Test Medium Condition 1, the synergism of combinations of microbicides determined in TSB by conducting high resolution MIC assays in the presence of various concentrations of MI. High resolution MICs were determined by adding varying amounts of microbicide to one column of a microtitre plate and doing subsequent […] dilutions using an automated liquid handling system to obtain a series of endpoints ranging from 2 ppm to 10,000 ppm active ingredient.
# [2] = system: Aspergillus niger; experiment: as above
# Experimental: as §1, §2, §3, §4, §5
# [3] = system: Aspergillus niger (ATCC #16404); experiment: MIC synergy assay in TSB, Test Medium Condition 1 (two-fold serial dilution); settings: ATCC16404, 168 h
# Experimental: as §1, §2, §3
# Synergism of combinations of microbicides was determined using standard MIC assays in trypticase soy broth medium (“TSB” medium). In this method, a range of concentrations was tested by preparing two-fold serial dilutions of the compound tested in 96-well microtiter plates. All liquid media transfers were performed with calibrated single or multichannel digital pipettors. Stock solutions of the microbicides were prepared in appropriate solvents and added to the TSB medium. All subsequent dilutions in plates were made using an automated liquid handling system. Final concentrations of microbicides were obtained by making two-fold serial dilutions in two directions in the microtiter plate. […]
# [4] = 72 h, read-out: QA, MIC of Compound A acting alone
"MIC ([1]; C. albicans, TSB, high resolution MIC, 25° C. 72 hours, read-out: QB, MIC of Compound B acting alone)","MIC ([2]; A. niger, TSB, high resolution MIC, 25° C. 72 hours, read-out: QB, MIC of Compound B acting alone)","MIC ([3]; A. niger, TSB, two-fold serial dilution, 25° C. one week, read-out: QB, MIC of Compound B acting alone)",SMILES,"MIC [1, 4]","MIC [2, 4]","MIC ([3]; read-out: QA, MIC of Compound A acting alone)"
–,–,–,"Cn1sccc1=O [MI, 2-methyl-3-isothiazolone]",100 µg/mL,150 µg/mL,250 µg/mL
300 µg/mL,200 µg/mL,594 µg/mL,"CCCOC(=O)c1ccc(O)cc1 [PP, propyl para-hydroxybenzoate]",–,–,–
